Common to all, as to assay: TR-FRET enzymatic assay of PI3K isoforms
Common to all, as to format: biochemical

The target in one test is PI3Kγ (Homo sapiens (Human), UniProt P48736). Conditions: 2× Km ATP, 30 minutes at 25° C. As for the experimental part: (§1) The compounds of formula (I) were characterized for their enzymatic activity against the PI3K isoforms. The activities were measured using a time-resolved fluorescence resonance energy transfer (TR-FRET) assay.
Another test addresses PI3Kβ (Homo sapiens (Human), UniProt P42338). Conditions: for PI3Kγ/PI3Kβ ratio: ratio of IC50 PI3Kγ to IC50 PI3Kβ (fold). The protocol:
as §1

Another test concerns the target PI3Kδ (Homo sapiens (Human), UniProt O00329). The following applies: 2× Km ATP, 30 minutes at 25° C. The protocol:
as §1

Chain of PI3Kδ (O00329 whole entry): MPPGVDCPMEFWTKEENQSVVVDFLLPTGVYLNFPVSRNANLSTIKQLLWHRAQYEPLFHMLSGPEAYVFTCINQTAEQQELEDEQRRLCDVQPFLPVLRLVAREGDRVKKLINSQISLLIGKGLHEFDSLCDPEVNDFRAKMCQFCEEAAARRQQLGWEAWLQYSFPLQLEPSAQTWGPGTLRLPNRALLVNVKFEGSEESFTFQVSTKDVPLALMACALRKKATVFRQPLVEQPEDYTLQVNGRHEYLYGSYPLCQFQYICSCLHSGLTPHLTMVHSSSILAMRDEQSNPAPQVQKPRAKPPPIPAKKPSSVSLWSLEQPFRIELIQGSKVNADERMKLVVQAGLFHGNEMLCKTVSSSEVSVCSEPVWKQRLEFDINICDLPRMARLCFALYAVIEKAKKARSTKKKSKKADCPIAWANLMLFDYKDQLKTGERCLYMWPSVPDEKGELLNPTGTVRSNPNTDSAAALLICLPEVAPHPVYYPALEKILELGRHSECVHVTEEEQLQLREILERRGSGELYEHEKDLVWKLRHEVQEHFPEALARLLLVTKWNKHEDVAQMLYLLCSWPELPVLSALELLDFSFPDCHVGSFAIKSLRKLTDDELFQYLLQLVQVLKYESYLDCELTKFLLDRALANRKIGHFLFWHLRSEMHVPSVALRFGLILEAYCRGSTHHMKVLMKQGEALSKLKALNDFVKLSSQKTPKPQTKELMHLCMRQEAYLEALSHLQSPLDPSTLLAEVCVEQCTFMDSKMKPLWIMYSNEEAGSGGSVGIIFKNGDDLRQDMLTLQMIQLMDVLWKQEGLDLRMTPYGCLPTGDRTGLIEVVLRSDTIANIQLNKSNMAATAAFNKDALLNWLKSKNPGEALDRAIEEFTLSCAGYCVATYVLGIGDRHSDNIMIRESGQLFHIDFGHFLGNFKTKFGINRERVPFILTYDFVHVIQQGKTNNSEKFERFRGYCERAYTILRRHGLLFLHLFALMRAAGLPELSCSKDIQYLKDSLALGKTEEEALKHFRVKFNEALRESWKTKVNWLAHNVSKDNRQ
Chain of PI3Kδ (P27986 whole entry partner): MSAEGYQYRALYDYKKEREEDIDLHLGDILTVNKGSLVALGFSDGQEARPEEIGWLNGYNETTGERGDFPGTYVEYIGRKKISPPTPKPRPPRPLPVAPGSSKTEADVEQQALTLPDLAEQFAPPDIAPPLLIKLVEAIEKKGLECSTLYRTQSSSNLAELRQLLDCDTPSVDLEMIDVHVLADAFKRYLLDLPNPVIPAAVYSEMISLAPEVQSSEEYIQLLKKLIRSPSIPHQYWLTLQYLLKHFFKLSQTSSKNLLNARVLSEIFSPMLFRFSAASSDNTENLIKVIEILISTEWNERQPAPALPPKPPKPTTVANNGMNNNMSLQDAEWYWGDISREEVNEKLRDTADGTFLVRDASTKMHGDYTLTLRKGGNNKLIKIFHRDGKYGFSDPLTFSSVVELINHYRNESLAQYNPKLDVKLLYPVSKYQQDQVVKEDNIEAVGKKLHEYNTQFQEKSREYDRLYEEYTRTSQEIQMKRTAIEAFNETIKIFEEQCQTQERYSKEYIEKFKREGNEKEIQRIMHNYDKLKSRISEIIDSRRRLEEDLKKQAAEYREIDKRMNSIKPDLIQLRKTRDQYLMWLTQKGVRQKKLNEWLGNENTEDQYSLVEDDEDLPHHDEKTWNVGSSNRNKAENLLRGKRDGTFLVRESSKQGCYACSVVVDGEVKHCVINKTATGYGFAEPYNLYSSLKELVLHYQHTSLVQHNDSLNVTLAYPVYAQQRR
Chain of PI3Kγ (P48736 whole entry, canonical isoform): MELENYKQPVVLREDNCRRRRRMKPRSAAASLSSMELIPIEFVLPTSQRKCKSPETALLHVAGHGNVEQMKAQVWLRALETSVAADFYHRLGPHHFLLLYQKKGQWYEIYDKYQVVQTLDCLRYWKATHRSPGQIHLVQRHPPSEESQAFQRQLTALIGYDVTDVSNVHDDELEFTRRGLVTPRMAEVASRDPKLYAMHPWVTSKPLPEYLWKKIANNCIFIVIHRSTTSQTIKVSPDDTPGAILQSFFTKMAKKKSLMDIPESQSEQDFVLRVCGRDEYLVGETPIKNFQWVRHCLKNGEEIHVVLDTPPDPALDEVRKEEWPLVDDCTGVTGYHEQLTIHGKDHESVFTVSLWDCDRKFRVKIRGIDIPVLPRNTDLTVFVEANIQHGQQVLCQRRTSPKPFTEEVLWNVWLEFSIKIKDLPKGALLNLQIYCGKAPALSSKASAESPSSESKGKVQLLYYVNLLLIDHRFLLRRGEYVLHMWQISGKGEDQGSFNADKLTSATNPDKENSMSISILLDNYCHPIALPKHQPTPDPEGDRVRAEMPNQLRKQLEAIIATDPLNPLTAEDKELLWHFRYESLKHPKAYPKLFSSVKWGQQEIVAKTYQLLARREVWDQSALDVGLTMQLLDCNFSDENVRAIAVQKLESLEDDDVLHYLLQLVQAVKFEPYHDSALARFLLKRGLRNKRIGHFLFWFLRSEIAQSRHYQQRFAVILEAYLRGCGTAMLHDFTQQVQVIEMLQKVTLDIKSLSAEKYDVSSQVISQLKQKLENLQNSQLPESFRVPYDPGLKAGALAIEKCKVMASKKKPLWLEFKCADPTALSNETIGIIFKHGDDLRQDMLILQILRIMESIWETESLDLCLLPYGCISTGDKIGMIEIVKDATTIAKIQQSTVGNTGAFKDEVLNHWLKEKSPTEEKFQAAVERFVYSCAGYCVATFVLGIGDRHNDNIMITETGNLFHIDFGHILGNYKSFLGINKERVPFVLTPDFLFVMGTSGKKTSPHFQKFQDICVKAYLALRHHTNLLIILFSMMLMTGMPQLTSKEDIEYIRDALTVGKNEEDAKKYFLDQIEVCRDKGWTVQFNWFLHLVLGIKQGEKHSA
Chain of PI3Kγ (Q8WYR1 whole entry partner, canonical isoform): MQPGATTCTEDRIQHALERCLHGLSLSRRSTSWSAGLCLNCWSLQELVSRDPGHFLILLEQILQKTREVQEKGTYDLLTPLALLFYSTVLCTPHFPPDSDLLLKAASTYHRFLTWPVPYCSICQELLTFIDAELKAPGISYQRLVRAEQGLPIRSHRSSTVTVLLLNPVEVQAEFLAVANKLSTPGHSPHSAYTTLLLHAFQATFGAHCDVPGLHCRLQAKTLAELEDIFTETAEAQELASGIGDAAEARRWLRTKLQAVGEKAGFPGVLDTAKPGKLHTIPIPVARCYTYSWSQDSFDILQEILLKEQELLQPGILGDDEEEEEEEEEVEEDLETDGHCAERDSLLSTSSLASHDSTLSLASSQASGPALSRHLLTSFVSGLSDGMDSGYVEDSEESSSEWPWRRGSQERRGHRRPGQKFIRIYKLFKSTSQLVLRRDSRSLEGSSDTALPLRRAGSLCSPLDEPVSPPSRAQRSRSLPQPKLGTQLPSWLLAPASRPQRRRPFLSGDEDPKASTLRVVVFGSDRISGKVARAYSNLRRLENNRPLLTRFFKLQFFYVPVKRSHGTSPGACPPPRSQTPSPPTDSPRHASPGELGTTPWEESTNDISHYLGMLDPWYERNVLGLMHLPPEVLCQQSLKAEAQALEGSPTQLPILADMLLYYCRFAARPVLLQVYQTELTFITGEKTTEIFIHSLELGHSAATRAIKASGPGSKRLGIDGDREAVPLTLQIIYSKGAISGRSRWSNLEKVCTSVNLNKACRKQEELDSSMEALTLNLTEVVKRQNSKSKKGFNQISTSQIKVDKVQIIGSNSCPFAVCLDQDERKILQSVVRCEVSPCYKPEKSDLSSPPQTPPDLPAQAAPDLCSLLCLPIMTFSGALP
Chain of PI3Kβ (P42338 whole entry): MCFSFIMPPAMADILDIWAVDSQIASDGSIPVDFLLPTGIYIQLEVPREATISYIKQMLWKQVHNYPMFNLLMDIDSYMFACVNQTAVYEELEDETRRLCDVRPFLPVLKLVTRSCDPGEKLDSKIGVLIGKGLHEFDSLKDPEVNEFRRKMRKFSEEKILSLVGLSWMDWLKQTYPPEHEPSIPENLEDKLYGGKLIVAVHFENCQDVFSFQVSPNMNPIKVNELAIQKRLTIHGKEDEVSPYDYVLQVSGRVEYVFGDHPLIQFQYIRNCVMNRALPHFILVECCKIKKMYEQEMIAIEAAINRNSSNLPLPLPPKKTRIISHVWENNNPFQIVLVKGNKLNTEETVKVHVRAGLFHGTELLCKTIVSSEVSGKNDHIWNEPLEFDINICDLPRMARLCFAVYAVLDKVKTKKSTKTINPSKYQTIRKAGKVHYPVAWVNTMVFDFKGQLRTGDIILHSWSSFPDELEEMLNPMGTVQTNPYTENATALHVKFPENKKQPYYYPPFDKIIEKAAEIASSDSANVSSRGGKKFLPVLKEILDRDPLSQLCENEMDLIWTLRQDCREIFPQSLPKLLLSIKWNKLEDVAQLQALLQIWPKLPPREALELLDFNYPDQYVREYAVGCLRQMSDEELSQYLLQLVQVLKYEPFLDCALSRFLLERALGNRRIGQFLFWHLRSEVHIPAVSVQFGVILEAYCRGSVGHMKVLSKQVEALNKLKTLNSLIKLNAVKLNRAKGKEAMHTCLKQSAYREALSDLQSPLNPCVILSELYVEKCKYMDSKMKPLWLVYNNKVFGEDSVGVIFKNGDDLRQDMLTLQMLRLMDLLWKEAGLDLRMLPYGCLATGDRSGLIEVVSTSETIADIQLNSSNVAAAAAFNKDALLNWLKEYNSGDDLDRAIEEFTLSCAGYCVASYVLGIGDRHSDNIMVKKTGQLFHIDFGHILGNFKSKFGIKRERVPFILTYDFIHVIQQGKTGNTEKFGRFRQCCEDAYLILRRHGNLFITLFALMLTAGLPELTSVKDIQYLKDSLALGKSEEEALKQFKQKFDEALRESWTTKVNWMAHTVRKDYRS
Chain of PI3Kβ (P27986 whole entry partner): as the sequence (P27986 whole entry partner) above

For `Cc1nc(N)nc(N[C@@H](C)c2nc3c(F)ccc(Cl)c3c(=O)n2C2[C@H]3CNC[C@@H]23)c1C#N` (stereo partly drawn) [Compound 16, 4-(((1S)-1-(3-((1R,5S)-3-azabicyclo[3.1.0]hexan-6-yl)-5-chloro-8-fluoro-4-oxo-3,4-dihydroquinazolin-2-yl)ethyl)amino)-2-amino-6-methylpyrimidine-5-carbonitrile], the half-maximal inhibitory concentration (IC50) amounted to 2600 nM on PI3Kγ, 2 nM at PI3Kβ and 6 nM against PI3Kδ.

`C[C@H](Nc1nc(N)nc(N)c1C#N)c1nc2c(F)ccc(Cl)c2c(=O)n1C1[C@H]2CNC[C@@H]12` (stereo partly drawn) [Compound 17, 4-(((1S)-1-(3-((1R,5S)-3-azabicyclo[3.1.0]hexan-6-yl)-5-chloro-8-fluoro-4-oxo-3,4-dihydroquinazolin-2-yl)ethyl)amino)-2,6-diaminopyrimidine-5-carbonitrile]: the IC50 amounted to 2800 nM on PI3Kγ, 3 nM at PI3Kβ and 4 nM on PI3Kδ.

On to `C[C@H](Nc1nc(N)nc(N)c1C#N)c1nc2cccc(Cl)c2c(=O)n1[C@@H]1CCCNC1` [Compound 27, 2,4-diamino-6-(((S)-1-(5-chloro-4-oxo-3-((R)-piperidin-3-yl)-3,4-dihydroquinazolin-2-yl)ethyl)amino)pyrimidine-5-carbonitrile], for which the IC50 on PI3Kγ was greater than 10000 nM; at PI3Kδ it was 830 nM.

On to `C[C@H](Nc1nc(N)nc(N)c1C#N)c1nc2cccc(Cl)c2c(=O)n1-c1ccccc1` [Compound X, (S)-2,4-diamino-6-((1-(5-chloro-4-oxo-3-phenyl-3,4-dihydroquinazolin-2-yl)ethyl)amino)pyrimidine-5-carbonitrile, reference compound], for which the PI3Kγ/PI3Kβ ratio on PI3Kβ is 0.6; at PI3Kβ (listed as (S)-2,4-diamino-6-(1-(5-chloro-4-oxo-3-phenyl-3,4-dihydroquinazolin-2-yl)ethyl)), “less than 1”.

For the origin of these results see patent US10092563B2, “Phosphatidylinositol 3-kinase inhibitors” (Gilead Sciences, Inc., priority 2014, dated 2018).
